Data reported in patent US9540385B2, “Pyrrolopyrimidine compounds as kinase inhibitors” (Pharmacyclics LLC, priority 2012, dated 2017).

Biological target: T1, BTK (Homo sapiens, UniProt Q06187)
T1 construct: purified from insect cells as a full-length construct containing a N-terminal 6×-His tag; His6 (N); made in house; host or cells: insect cells (baculovirus, Sf21)
Experiment: Btk in vitro inhibitory activity / inhibition of a panel of kinases (TR-FRET, mobility shift or radiometric filter binding)
Format: biochemical
Conditions: kinase assay by one of methods A, B or C
Experimental: Btk kinase activity is determined using a time-resolved fluorescence resonance energy transfer (TR-FRET) methodology. Measurements are performed in a reaction volume of 50 μL using 96-well assay plates. Kinase enzyme, inhibitor, ATP (at the Km for the kinase), and 1 μM peptide substrate (Biotin-AVLESEEELYSSARQ-NH2) are incubated in a reaction buffer composed of 20 mM Tris, 50 mM NaCl, MgCl2 (5-25 mM depending on the kinase), MnCl2 (0-10 mM), 1 mM DTT, 0.1 mM EDTA, 0.01% bovine serum albumin, 0.005% Tween-20, and 10% DMSO at pH 7.4 for one hour. The reaction is quenched by the addition of 1.2 equivalents of EDTA (relative to divalent cation) in 25 μL of 1× Lance buffer (Perkin-Elmer). Streptavidin-APC (Perkin-Elmer) and Eu-labeled p-Tyr100 antibody (Perkin-Elmer) in 1× Lance buffer are added in a 25 μL volume to give final concentrations of 100 nM and 2.5 nM, respectively, and the mixture is allowed to incubate for one hour. The TR-FRET signal is measured on a multimode plate reader with an excitation wavelength (λEx) of 330 nm and detection wavelengths (λEm) of 615 and 665 nm. Activity is determined by the ratio of the fluorescence at 665 nm to that at 615 nm. For each compound, enzyme activity is measured at various concentrations of compound. Negative control reactions are performed in the absence of inhibitor in replicates of six, and two no-enzyme controls are used to determine baseline fluorescence levels. Inhibition constants, Ki(app), ware obtained using the program BatchKi (Kuzmic et al. (2000), Anal. Biochem. 286:45-50). IC50s are obtained according to the equation: IC50={Ki(app)/(1+[ATP]/Km^ATP)}+[E]total/2;
For all kinases, [ATP]=Km^ATP, [Btk]total=0.5 nM and [Lck]total=6 nM.
Kinase activity is measured in vitro using electrophoretic mobility shift assay. The kinase reactions are assembled in a total volume of 25 μL in 384 well plates. The reactions comprise: BTK enzyme (1 nM, N-terminal His6-tagged, recombinant, full-length, human BTK purified from baculovirus Sf21 insect cell system), inhibitor, ATP ([…] the apparent Km for the kinase), fluorescently labeled peptide substrate (1 μM, FAM-GEEPLYWSFPAKKK-NH2) in a reaction buffer composed of 100 mM HEPES, pH7.5, 5 mM MgCl2 1 mM DTT, 0.1% bovine serum albumin, 0.01% Triton X-100, and 1% DMSO. The reaction is incubated for one hour and is quenched by the addition of 45 μL of termination buffer (100 mM HEPES, pH7.5, 0.01% Triton X-100, 30 mM EDTA). The terminated reactions are analyzed using 12 channel LabChip® 3000 microfluidic detection instrument (Caliper Life Sciences). The enzymatic phosphorylation of the peptide results in a change in net charge, enabling electrophoretic separation of product from substrate peptide. As substrate and product peptides are separated, two peaks of fluorescence are observed. Change in the relative fluorescence intensity of the substrate and product peaks is the parameter measured, reflecting enzyme activity. In the presence of an inhibitor, the ratio between product and substrate is altered: the signal of the product decreases, while the signal of the substrate increases.
Activity in each sample is determined as the product to sum ratio (PSR):P/(S+P), where P is the peak height of the product peptide and S is the peak height of the substrate peptide. For each compound, enzyme activity is measured at various concentrations (12 concentrations of compound spaced by 3× dilution intervals). Negative control samples (0%-inhibition in the absence of inhibitor) and positive control samples (100%-inhibition, in the presence of 20 mM EDTA) are assembled in replicates of four and are used to calculate %-inhibition values for each inhibitor at each concentration. Percent inhibition (Pinh) is determined using following equation: […]

T1 sequence (Q06187 whole entry): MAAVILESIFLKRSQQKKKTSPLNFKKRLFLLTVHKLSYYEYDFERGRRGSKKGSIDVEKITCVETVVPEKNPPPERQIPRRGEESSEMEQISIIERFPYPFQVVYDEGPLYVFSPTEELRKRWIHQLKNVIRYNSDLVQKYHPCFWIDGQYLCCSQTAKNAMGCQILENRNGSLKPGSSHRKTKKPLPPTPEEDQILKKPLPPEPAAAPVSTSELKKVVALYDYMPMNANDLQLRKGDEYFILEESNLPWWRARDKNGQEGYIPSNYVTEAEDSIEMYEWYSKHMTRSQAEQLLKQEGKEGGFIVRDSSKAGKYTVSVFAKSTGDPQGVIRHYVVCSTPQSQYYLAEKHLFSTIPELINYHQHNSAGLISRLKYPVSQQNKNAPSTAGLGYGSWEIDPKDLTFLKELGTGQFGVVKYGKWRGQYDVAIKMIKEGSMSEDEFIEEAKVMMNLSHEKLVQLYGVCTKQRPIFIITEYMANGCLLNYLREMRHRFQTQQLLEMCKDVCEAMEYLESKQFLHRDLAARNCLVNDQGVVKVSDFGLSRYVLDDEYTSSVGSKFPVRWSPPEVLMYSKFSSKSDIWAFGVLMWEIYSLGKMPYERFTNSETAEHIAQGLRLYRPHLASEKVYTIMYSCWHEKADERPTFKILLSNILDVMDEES

| SMILES | IC50 [nM] |
| --- | --- |
| CN(C/C=C/C(=O)N1CC[C@@H](n2c(C3CC3)c(-c3ccc(Oc4ccccc4)cc3)c3c(N)ncnc32)C1)[C@@H]1CCOC1 [Compound 97, (E)-1-((R)-3-(4-amino-6-cyclopropyl-5-(4-phenoxyphenyl)-7H-pyrrolo[2,3-d]pyrimidin-7-yl)pyrrolidin-1-yl)-4-(methyl((R)-tetrahydrofuran-3-yl)amino)but-2-en-1-one] | < 100 |
| CN(C/C=C/C(=O)N1CC[C@@H](n2c(C(N)=O)c(-c3ccc(Oc4ccccc4)cc3)c3c(N)ncnc32)C1)C1CC1 [Compound 126, (R,E)-4-amino-7-(1-(4-(cyclopropyl(methyl)amino)but-2-enoyl)pyrrolidin-3-yl)-5-(4-phenoxyphenyl)-7H-pyrrolo[2,3-d]pyrimidine-6-carboxamide] | < 100 |
| CN(C/C=C/C(=O)N1CC[C@@H](n2c(C#N)c(-c3ccc(Oc4ccccc4)cc3)c3c(N)ncnc32)C1)[C@H]1CCOC1 [Compound 106, 4-amino-7-((R)-1-((E)-4-(methyl((S)-tetrahydrofuran-3-yl)amino)but-2-enoyl)pyrrolidin-3-yl)-5-(4-phenoxyphenyl)-7H-pyrrolo[2,3-d]pyrimidine-6-carbonitrile] | < 100 |
| CN(C/C=C/C(=O)N1CC[C@@H](n2c(C(F)F)c(-c3ccc(Oc4ccccc4)cc3)c3c(N)ncnc32)C1)C1CC1 [Compound 122, (R,E)-1-(3-(4-amino-6-(difluoromethyl)-5-(4-phenoxyphenyl)-7H-pyrrolo[2,3-d]pyrimidin-7-yl)pyrrolidin-1-yl)-4-(cyclopropyl(methyl)amino)but-2-en-1-one] | < 100 |
| CN(C/C=C/C(=O)N1CC[C@@H](n2c(N)c(-c3ccc(Oc4ccccc4)cc3)c3c(N)ncnc32)C1)C1CC1 [Compound 162, (R,E)-4-(cyclopropyl(methyl)amino)-1-(3-(4,6-diamino-5-(4-phenoxyphenyl)-7H-pyrrolo[2,3-d]pyrimidin-7-yl)pyrrolidin-1-yl)but-2-en-1-one] | < 100 |
| CN(C)C/C=C/C(=O)N1CC[C@@H](n2c(C3CC3)c(-c3ccc(Oc4ccccc4)cc3)c3c(N)ncnc32)C1 [Compound 100, (R,E)-1-(3-(4-amino-6-cyclopropyl-5-(4-phenoxyphenyl)-7H-pyrrolo[2,3-d]pyrimidin-7-yl)pyrrolidin-1-yl)-4-(dimethylamino)but-2-en-1-one] | < 100 |
| COc1c(-c2ccc(Oc3ccccc3)cc2)c2c(N)ncnc2n1[C@@H]1CCN(C(=O)/C=C/CN(C)C)C1 [Compound 88, (R,E)-1-(3-(4-amino-6-methoxy-5-(4-phenoxyphenyl)-7H-pyrrolo[2,3-d]pyrimidin-7-yl)pyrrolidin-1-yl)-4-(dimethylamino)but-2-en-1-one] | < 100 |
| CN(C(=O)/C=C/CN(C)C1CC1)c1ccc(-n2c(Cl)c(-c3ccc(Cl)cc3)c3c(N)ncnc32)cc1 [Compound 31, (E)-N-(4-(4-amino-6-chloro-5-(4-chlorophenyl)-7H-pyrrolo[2,3-d]pyrimidin-7-yl)phenyl)-4-(cyclopropyl(methyl)amino)-N-methylbut-2-enamide] | < 100 |
| COCCN(C)C/C=C/C(=O)N1CC[C@@H](n2c(Cl)c(-c3ccc(Oc4ccccc4)cc3)c3c(N)ncnc32)C1 [Compound 55, (R,E)-1-(3-(4-amino-6-chloro-5-(4-phenoxyphenyl)-7H-pyrrolo[2,3-d]pyrimidin-7-yl)pyrrolidin-1-yl)-4-((2-methoxyethyl)(methyl)amino)but-2-en-1-one] | < 100 |
| COCCN(C)C/C=C/C(=O)N1CC[C@@H](n2c(C#N)c(-c3ccc(Oc4ccccc4)cc3)c3c(N)ncnc32)C1 [Compound 104, (R,E)-4-amino-7-(1-(4-((2-methoxyethyl)(methyl)amino)but-2-enoyl)pyrrolidin-3-yl)-5-(4-phenoxyphenyl)-7H-pyrrolo[2,3-d]pyrimidine-6-carbonitrile] | < 100 |
| CN(C/C=C/C(=O)N1CC[C@@H](n2c(C#N)c(-c3ccc(Oc4cccc(F)c4)cc3)c3c(N)ncnc32)C1)C1CC1 [Compound 109, (R,E)-4-amino-7-(1-(4-(cyclopropyl(methyl)amino)but-2-enoyl)pyrrolidin-3-yl)-5-(4-(3-fluorophenoxyl)phenyl)-7H-pyrrolo[2,3-d]pyrimidine-6-carbonitrile] | < 100 |
| CN(C/C=C/C(=O)N1CC[C@@H](n2c(C3CC3)c(-c3ccc(Oc4cccc(F)c4)cc3)c3c(N)ncnc32)C1)C1CC1 [Compound 99, (R,E)-1-(3-(4-amino-6-cyclopropyl-5-(4-(3-fluorophenoxy)phenyl)-7H-pyrrolo[2,3-d]pyrimidin-7-yl)pyrrolidin-1-yl)-4-(cyclopropyl(methyl)amino)but-2-en-1-one] | 100 to 1000 |

The remaining lines, values ahead:

| IC50 [nM] | SMILES |
| --- | --- |
| < 100 | CN(C)C/C=C/C(=O)N1CC[C@@H](n2c(C#N)c(-c3ccc(Oc4ccccc4)cc3)c3c(N)ncnc32)C1 [Compound 102, (R,E)-4-amino-7-(1-(4-(dimethylamino)but-2-enoyl)pyrrolidin-3-yl)-5-(4-phenoxyphenyl)-7H-pyrrolo[2,3-d]pyrimidine-6-carbonitrile] |
| < 100 | Cc1c(-c2ccc(Oc3cccc(F)c3)cc2)c2c(N)ncnc2n1[C@@H]1CCCN(C(=O)/C=C/CN(C)C2CC2)C1 [Compound 76, (R,E)-1-(3-(4-amino-5-(4-(3-fluorophenoxyl)phenyl)-6-methyl-7H-pyrrolo[2,3-d]pyrimidin-7-yl)piperidin-1-yl)-4-(cyclopropyl(methyl)amino)but-2-en-1-one] |
| < 100 | CN(C/C=C/C(=O)N1CC[C@@H](n2c(-c3ncco3)c(-c3ccc(Oc4ccccc4)cc3)c3c(N)ncnc32)C1)C1CC1 [Compound 124, (R,E)-1-(3-(4-amino-6-(oxazol-2-yl)-5-(4-phenoxyphenyl)-7H-pyrrolo[2,3-d]pyrimidin-7-yl)pyrrolidin-1-yl)-4-(cyclopropyl(methyl)amino)but-2-en-1-one] |
| < 100 | CN(C/C=C/C(=O)N1CC[C@@H](n2c(C#N)c(-c3ccc(Oc4ccccc4)cc3)c3c(N)ncnc32)C1)[C@@H]1CCOC1 [Compound 107, 4-amino-7-((R)-1-((E)-4-(methyl((R)-tetrahydrofuran-3-yl)amino)but-2-enoyl)pyrrolidin-3-yl)-5-(4-phenoxyphenyl)-7H-pyrrolo[2,3-d]pyrimidine-6-carbonitrile] |
| < 100 | Cc1c(-c2ccc(Oc3ccccc3)cc2)c2c(N)ncnc2n1[C@@H]1CCCN(C(=O)/C=C/CN(C)C2CC2)C1 [Compound 72, (R,E)-1-(3-(4-amino-6-methyl-5-(4-phenoxyphenyl)-7H-pyrrolo[2,3-d]pyrimidin-7-yl)piperidin-1-yl)-4-(cyclopropyl(methyl)amino)but-2-en-1-one] |
| < 100 | Cc1c(-c2ccc(Oc3ccccc3)cc2)c2c(N)ncnc2n1[C@@H]1CCN(C(=O)/C=C/CN(C)[C@H]2CCOC2)C1 [Compound 129, (E)-1-((R)-3-(4-amino-6-methyl-5-(4-phenoxyphenyl)-7H-pyrrolo[2,3-d]pyrimidin-7-yl)pyrrolidin-1-yl)-4-(methyl((S)-tetrahydrofuran-3-yl)amino)but-2-en-1-one] |
| < 100 | Cc1c(-c2ccc(Oc3ccccc3)cc2)c2c(N)ncnc2n1[C@@H]1CCN(C(=O)/C=C/CN(C)[C@@H]2CCOC2)C1 [Compound 130, (E)-1-((R)-3-(4-amino-6-methyl-5-(4-phenoxyphenyl)-7H-pyrrolo[2,3-d]pyrimidin-7-yl)pyrrolidin-1-yl)-4-(methyl((R)-tetrahydrofuran-3-yl)amino)but-2-en-1-one] |
